Measured values: patent US9139543B2, “Thiazole compounds and uses thereof” (Institute of Pharmacology and Toxicology Academy of …, priority 2012, dated 2015)

Tested on: myocardial cells
Assay: Activity of preventing cardiomyocyte apoptosis induced by TM (MTT cell survival)
Assay type: cell-based, Neonatal Wistar rats
Conditions: primary neonatal rat myocardial cells; for EC50: Cardiomyocyte, compound 30 min before TM 0.5 μg/ml, 48 h, read-out: Protection effects against cardiomyocyte apoptosis induced by TM, EC50
Experimental: Neonatal Wistar rats newborn within 24 h, not confined to female or male (provided by the Center of Laboratory Animals, Academy of Military Medical Science of the PLA, animal certificate No.: SCXK-( ? ) 2007-004). High-sugar DMEM culture medium, trypsinase, and type II collagenase purchased from Gibco Company; fetal bovine serum (FBS) purchased from Beijing Yuanhengshengma Biological Technology Institute; 5-bromo-2-deoxyuridine (5-Brdu), tunicamycin (TM) purchased from Sigma Company; thiazolyl blue (MTT), dimethyl sulfoxide (DMSO) which is the product of Amresco; other chemical agents were all analytical pure and made in China. Universal Microplate ReaderEL800 type of ELIASA was a product of BIO-TEK Company of US.
neonatal Wistar rats newborn within 24 h were used, skin of abdomen was sterilized with iodine and alcohol. Tissue of ventricular apex was taken out with aseptic operation, cut into pieces with 1 mm^3 size, added with suitable amount of 0.125% pancretin and 0.1% collagenase II (final concentration was respectively 0.1% and 0.02%), mechanical shaking in 37° C. water-bath, 10 min each time, digested repeatedly until the tissue pieces were completely digested. The prepared myocardial cell suspension was inoculated in a 75 cm^2 culture flask. Non-myocardial cells were removed by differential adhesion method. The myocardial cell density was adjusted with DMEM culture medium containing 10% FBS, inoculated to a 96-well plate in an amount of 10^4/ml, placed in 5% CO2 incubator at 37° C. for 24 h for primary culture. Half medium was replaced after 24 h, a culture medium containing 0.1% 5-Brdu (5-bromo-2-deoxyuridine) was replenished to inhibit the growth of non-myocardial cells. The medium was replaced once per 48 h for primary culture.
Measurement of compound activity: myocardial cells were cultured for 4 days, respectively treated with compound in different concentrations (0.3 μM, 1 μM, 3 μM) for 30 min, then added with TM to final concentration of 0.5 μg/ml (TM group with final concentration of 0.5 μg/ml and solvent control group (DMSO) were set at the same time), and placed in 37° C., 5% CO2 incubator and cultured for 48 h, then each well was added with 10 μl of MTT (5 mg/ml) and continuously incubated for 4 h, finally each well was added with 100 μL of 10% SDS, incubated at 37° C., 5% CO2 for 24 h, so that MTT crystal was completely dissolved. ELISA was used to measure light absorbance of each well under 550 nm wavelength, in which TM and the compound of the present invention were formulated with DMSO. The formula is: cell survival rate (%)=OD value of administration group/average OD value of solvent control well×100%. The results were expressed in x±SD, and EC50 values (Table 1) were calculated with software, so that the effect of compound of the present invention preventing cardiomyocyte apoptosis induced by TM was determined.

Structure (SMILES): O=C(/C=C/c1ccccc1)NC(Nc1nc(-c2ccc(F)cc2F)cs1)C(Cl)(Cl)Cl (stereo not shown) [Example 4, (2E)-3-(2-phenyl)-N-[1-(2,4-difluorophenyl-2-thiazolyl)-2,2,2-trichloroethyl]-2-acrylamide]
- EC50: 0.8 µM

Structure (SMILES): COc1ccc(-c2nc(NC(NC(=O)/C=C/c3ccccc3)C(Cl)(Cl)Cl)sc2-c2ccccc2)cc1 (stereo not shown) [Example 1]
- EC50: 100 µM

Structure (SMILES): O=C(/C=C/c1ccccc1)NC(Nc1nc(-c2ccccc2)c(-c2ccccc2)s1)C(Cl)(Cl)Cl (stereo not shown) [Example 2]
- EC50: 47 µM

Structure (SMILES): COc1ccc(-c2csc(NC(NC(=O)/C=C/c3ccccc3)C(Cl)(Cl)Cl)n2)cc1 (stereo not shown) [Example 3, (2E)-3-(2-phenyl)-N-[1-(4-methoxyphenyl-2-thiazolyl)-2,2,2-trichloroethyl]-2-acrylamide]
- EC50: 61 µM

Structure (SMILES): O=C(/C=C/c1ccccc1)NC(Nc1nc(-c2ccccc2)cs1)C(Cl)(Cl)Cl (stereo not shown) [Example 6]
- EC50: 30 µM

Structure (SMILES): O=C(/C=C/c1ccccc1)NC(Nc1nc(-c2ccc(Cl)cc2)cs1)C(Cl)(Cl)Cl (stereo not shown) [Example 5, (2E)-3-(2-phenyl)-N-[1-(4-chlorophenyl-2-thiazolyl)-2,2,2-trichloroethyl]-2-acrylamide]
- EC50: 0.3 µM
- Protection effects against cardiomyocyte apoptosis induced by TM (in words) (TM 0.5 μg/ml): good protection effects
